Experimental data: patent US20240059688A1, “CONOLIDINE ANALOGUES AS SELECTIVE ACKR3 MODULATORS FOR THE TREATMENT OF CANCER” (Luxembourg Institute of Health (LIH), priority 2020, published 2024)
pIC50: −log10 of the molar value.

What was measured:
ACKR3 [1] = biological target: T1, ACKR3 (Homo sapiens, UniProt P25106); experiment: ACKR3-mediated uptake of Cy5-labeled BAM22 in U87-ACKR3 cells (imaging flow cytometry); assay type: cell-based; parameters: expressed in transfected cells; host or cells: U87-ACKR3 (ACKR3-negative U87 as control); details: concentration-dependent, FIG. 7
Description: U87-ACKR3 cells were distributed into 96-well plates (2×10^5 cells per well in Opti-MEM). After 15-minute incubation at 37° C. with WW-1 or WW-12 or controls, Cy5-labeled BAM22 was added, incubated for 40 minutes at 37° C. and washed twice with FACS buffer. Dead cells were excluded using Zombie Green viability dye. Images of 1×10^4 in-focus living single cells were acquired with an ImageStream MKII imaging flow cytometer (Amnis, running on the INSPIRE Mark II software (EMD Millipore)) using 40× magnification (60× magnification for smNPCs). Samples were analyzed using Ideas6.2 software. The number of spots per cell was determined using a mask-based software wizard.

ACKR3 [2] = biological target: T1, ACKR3; experiment: Ligand-induced ACKR3 delivery to early endosomes (NanoBRET, U87 cells); assay type: cell-based; parameters: expressed in transfected cells; host or cells: U87-ACKR3 (ACKR3-negative U87 as control); details: ACKR3-Nanoluciferase / FYVE-mNeonGreen, FIG. 6 section B
Description: Ligand-induced receptor-arrestin delivery to early endosomes was monitored by NanoBRET. In brief, 1.2×10^6 U87 cells were seeded in 10-cm dishes and co-transfected with plasmids encoding ACKR3, C-terminally tagged with Nanoluciferase and FYVE domain of endofin interacting with phosphatidylinositol 3-phosphate (PI3P) in early endosomes46,47, N-terminally tagged with mNeonGreen. 48h post-transfection, cells were distributed into black 96-well plates (1×10^5 cells per well) and treated with full-length or processed chemokines. After 2-hour incubation at 37° C., coelenterazine H (10 μM) was added and donor emission (460 nm) and acceptor emission (535 nm) were immediately measured on a GloMax plate reader (Promega).

ACKR3 [3] = biological target: T1, ACKR3; experiment: Binding competition assay with CXCL12-AF647 on U87-ACKR3 cells; parameters: expressed in transfected cells; host or cells: U87-ACKR3 (ACKR3-negative U87 as control); details: 5 nM CXCL12-AF647, FIG. 1 section D
Text: Dead cells were excluded using Zombie Green viability dye (BioLegend). […] Ligand binding was quantified by mean fluorescence intensity on a BD FACS Fortessa cytometer (BD Biosciences) using FACS Diva 8.01 (BD Biosciences).

NOP = biological target: T2, NOP (Homo sapiens, UniProt P41146); experiment: NanoBiT-based β-arrestin-2 recruitment assay, NOP; assay type: cell-based; details: concentration range 0.15 nM to 80 μM; reference Nociceptin
T2 construct: expressed in transfected cells; host or cells: U87
Description: The ability of the different molecules to activate the four opioid receptors MOR, DOR, KOR and NOP that are known to mediate in vivo analgesic effects was tested using the NanoBiT-based β-arrestin-2 recruitment assay in a concentration range of 0.15 nM to 80 μM. For each of these receptors a reference ligand corresponding to an endogenous opioid peptide i.e. Met-enkephalin, BAM22, Dynorphin A and Nociceptin, respectively was included.
Ligand-induced β-arrestin recruitment to chemokine and opioid receptors was monitored by NanoLuc complementation assay (NanoBiT, Promega). In brief, 1.2×10^6 U87 cells were plated in 10-cm culture dishes and 48 hours later co-transfected with pNBe vectors encoding GPCRs (ACKR3, MOR, DOR, KOR, or NOP) C-terminally tagged with SmBiT and human β-arrestin-1 (arrestin-2) or β-arrestin-2 (arrestin-3) N-terminally fused to LgBiT. 48 hours post-transfection cells were harvested, incubated 25 minutes at 37° C. with Nano-Glo Live Cell substrate diluted 200-fold and distributed into white 96-well plates (5×10^4 cells per well). Ligand-induced, β-arrestin to GPCRs was evaluated with a Mithras LB940 luminometer (Berthold Technologies, running on MicroWin 2010 5.19 software (Mikrotek Laborsysteme)) for 20 minutes.
For concentration-response curves (FIG. 2), the signal recorded with a saturating concentration of full agonist for each receptor was set as 100%. […]

T1 sequence (P25106 whole entry): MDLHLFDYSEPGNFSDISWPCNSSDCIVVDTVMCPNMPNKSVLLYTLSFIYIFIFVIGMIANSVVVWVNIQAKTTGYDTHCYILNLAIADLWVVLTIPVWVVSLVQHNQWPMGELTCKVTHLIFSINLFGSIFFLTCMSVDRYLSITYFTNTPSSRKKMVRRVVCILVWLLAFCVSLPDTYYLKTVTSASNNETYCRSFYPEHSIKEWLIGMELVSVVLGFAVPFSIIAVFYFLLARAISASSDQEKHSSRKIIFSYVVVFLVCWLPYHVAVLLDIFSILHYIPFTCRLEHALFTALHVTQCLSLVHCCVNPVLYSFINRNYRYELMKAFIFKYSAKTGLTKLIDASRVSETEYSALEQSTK
T2 sequence (P41146 whole entry): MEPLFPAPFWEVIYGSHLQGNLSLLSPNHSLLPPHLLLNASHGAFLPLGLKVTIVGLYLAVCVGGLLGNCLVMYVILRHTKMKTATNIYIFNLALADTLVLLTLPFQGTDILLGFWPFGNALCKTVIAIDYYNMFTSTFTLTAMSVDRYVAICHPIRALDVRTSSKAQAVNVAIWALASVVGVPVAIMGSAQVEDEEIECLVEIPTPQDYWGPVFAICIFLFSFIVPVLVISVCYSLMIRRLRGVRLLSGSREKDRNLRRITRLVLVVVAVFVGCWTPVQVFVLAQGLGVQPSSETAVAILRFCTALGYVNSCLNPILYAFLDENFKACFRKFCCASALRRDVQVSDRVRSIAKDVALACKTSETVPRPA

| inhibition of uptake of Cy5-labelled BAM22 by ACKR3 (ACKR3 [1]) | ACKR3 delivery to the endosomes (ACKR3 [2]) | pIC50 (ACKR3 [3]) | activation of NOP (β-arrestin-2 recruitment) (NOP) | SMILES |
| --- | --- | --- | --- | --- |
| able to restrain the uptake | delivery to the endosomes | 4.40 | not active | C/C=C1/CN2CC[C@H]1C(=O)c1[nH]c3ccccc3c1C2 [WW-1, (4E,5R)-4-ethylidene-1,4,5,7-tetrahydro-2,5-ethanoazocino[4,3-b]indol-6(3H)-one] |
| able to restrain the uptake | delivery to the endosomes | 5.57 | not active | C/C=C1/CN(CCCCC)CC[C@H]1C(=O)c1cc2ccccc2[nH]1 [WW-12, [(3E,4R)-3-ethylidene-1-pentylpiperidin-4-yl](1H-indol-2-yl)methanone] |
